Reference: PubChem BioAssay (NCI)
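These data come from cells grown in 96-well plates and exposed to compound for 48 hours at five concentrations. GI50: concentration for 50% inhibition of growth. TGI marks complete inhibition of growth.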

How the values were obtained:
Assay in all cases: DTP human tumour cell line panel, 48 h
COLO 205 colon = system: COLO 205 colon
HL-60(TB) leukemia = system: HL-60(TB) leukemia
NCI-H23 lung = system: NCI-H23 lung
OVCAR-8 ovarian = system: OVCAR-8 ovarian
HT29 colon = system: HT29 colon
OVCAR-4 ovarian = system: OVCAR-4 ovarian
NCI-H460 lung = system: NCI-H460 lung
786-0 renal = system: 786-0 renal
NCI/ADR-RES ovarian = system: NCI/ADR-RES ovarian
MCF7 breast = system: MCF7 breast

**Q.** With `CC(=O)ON(C(C)=O)C1C(COC(c2ccccc2)(c2ccccc2)c2ccccc2)OC2OC3(CCCC3)OC21` (stereo not given) as the compound, how does the TGI (COLO 205 colon) read?
**A.** > 100 µM

**Q.** And the TGI (HL-60(TB) leukemia)?
**A.** > 100 µM

**Q.** And the TGI (NCI-H23 lung)?
**A.** > 100 µM

**Q.** What about the TGI (OVCAR-8 ovarian) of the same compound?
**A.** > 100 µM

**Q.** And the TGI (HT29 colon)?
**A.** > 100 µM

**Q.** And the TGI (OVCAR-4 ovarian)?
**A.** > 100 µM

**Q.** And the TGI (NCI-H460 lung)?
**A.** > 100 µM

**Q.** What about the TGI (786-0 renal) of the same compound?
**A.** > 75.2 µM

**Q.** For `CC(=O)C1CCC2C3CC=C4CC(SC(=N)N)CCC4(C)C3CCC12C` (stereo not given), which GI50 (COLO 205 colon) is on record?
**A.** 1.6 µM

**Q.** And the TGI (COLO 205 colon)?
**A.** 2.94 µM

**Q.** What about the GI50 (HL-60(TB) leukemia) of the same compound?
**A.** 1.88 µM

**Q.** What about the TGI (HL-60(TB) leukemia) of the same compound?
**A.** 4.19 µM

**Q.** What about the GI50 (NCI/ADR-RES ovarian) of the same compound?
**A.** 2 µM

**Q.** What about the TGI (NCI/ADR-RES ovarian) of the same compound?
**A.** 5.28 µM

**Q.** And the GI50 (NCI-H23 lung)?
**A.** 2.02 µM

**Q.** What about the TGI (NCI-H23 lung) of the same compound?
**A.** 5.34 µM

**Q.** And the GI50 (HT29 colon)?
**A.** 0.809 µM

**Q.** What about the TGI (HT29 colon) of the same compound?
**A.** 2.14 µM

**Q.** What about the GI50 (OVCAR-4 ovarian) of the same compound?
**A.** 1.85 µM

**Q.** And the TGI (OVCAR-4 ovarian)?
**A.** 4.8 µM

**Q.** What about the GI50 (NCI-H460 lung) of the same compound?
**A.** 1.58 µM

**Q.** And the TGI (NCI-H460 lung)?
**A.** 3.09 µM

**Q.** What about the GI50 (786-0 renal) of the same compound?
**A.** 1.64 µM

**Q.** What about the TGI (786-0 renal) of the same compound?
**A.** 3.29 µM

**Q.** With `Cn1nc(-c2ccccc2)c(C(=O)/C=C/c2ccc(F)cc2)c(N2CCOCC2)c1=O` as the compound, how does the TGI (COLO 205 colon) read?
**A.** 34.6 µM

**Q.** What about the TGI (HL-60(TB) leukemia) of the same compound?
**A.** 40.5 µM

**Q.** And the TGI (OVCAR-8 ovarian)?
**A.** > 100 µM

**Q.** What about the TGI (HT29 colon) of the same compound?
**A.** 30.2 µM

**Q.** What about the TGI (NCI-H460 lung) of the same compound?
**A.** 78.2 µM

**Q.** And the TGI (786-0 renal)?
**A.** 36.2 µM

**Q.** `OC1CCC[C@@H]1Sc1ccccc1` (stereo not given in full) was tested. Which TGI (COLO 205 colon) did it give?
**A.** > 100 µM

**Q.** What about the TGI (HL-60(TB) leukemia) of the same compound?
**A.** > 100 µM

**Q.** And the TGI (NCI-H23 lung)?
**A.** > 100 µM

**Q.** What about the TGI (OVCAR-8 ovarian) of the same compound?
**A.** > 100 µM

**Q.** What about the TGI (OVCAR-4 ovarian) of the same compound?
**A.** > 100 µM

**Q.** And the TGI (NCI-H460 lung)?
**A.** > 100 µM

**Q.** And the TGI (786-0 renal)?
**A.** > 100 µM

**Q.** What does the source list for `N#Cc1cc(NC(=O)c2ccccc2)c(=O)n2c1[nH]c1ccccc12`?
**A.** TGI (COLO 205 colon): > 100 µM; TGI (HL-60(TB) leukemia): 74.6 µM; TGI (NCI-H23 lung): 57.7 µM; TGI (OVCAR-8 ovarian): > 100 µM; TGI (HT29 colon): > 100 µM; TGI (OVCAR-4 ovarian): > 100 µM; TGI (NCI-H460 lung): > 100 µM; TGI (786-0 renal): > 100 µM

**Q.** How did the TGI (COLO 205 colon) turn out when `O=C1C2ON3c4ccccc4C(=O)C3(c3ccccc3)C2C(=O)N1c1ccccc1` (stereo not given) was run?
**A.** > 100 µM

**Q.** What about the TGI (HL-60(TB) leukemia) of the same compound?
**A.** > 100 µM

**Q.** What about the TGI (NCI-H23 lung) of the same compound?
**A.** > 100 µM

**Q.** What about the TGI (OVCAR-8 ovarian) of the same compound?
**A.** > 100 µM

**Q.** What about the TGI (HT29 colon) of the same compound?
**A.** > 100 µM

**Q.** And the TGI (OVCAR-4 ovarian)?
**A.** > 100 µM

**Q.** And the TGI (786-0 renal)?
**A.** > 100 µM

**Q.** Which results are given for `NNC(=O)N/N=C1\C(=O)N(c2nccs2)C(=O)C(=O)C1c1nc2ccccc2s1` (stereo not given)?
**A.** TGI (COLO 205 colon): > 100 µM; TGI (NCI-H23 lung): > 100 µM; TGI (OVCAR-8 ovarian): > 100 µM; TGI (HT29 colon): > 100 µM; TGI (OVCAR-4 ovarian): > 100 µM; TGI (NCI-H460 lung): > 100 µM; TGI (786-0 renal): > 100 µM

**Q.** Which TGI (HL-60(TB) leukemia) does the source give for `COC(=O)C(=O)C(C(=O)C(=O)Nc1ccc(C)cc1)c1nc2ccc(C(=O)c3ccccc3)cc2[nH]c1=O` (stereo not given) here?
**A.** > 100 µM

**Q.** What about the TGI (NCI/ADR-RES ovarian) of the same compound?
**A.** > 100 µM

**Q.** What about the TGI (NCI-H23 lung) of the same compound?
**A.** > 100 µM

**Q.** And the TGI (OVCAR-8 ovarian)?
**A.** > 100 µM

**Q.** And the TGI (HT29 colon)?
**A.** > 100 µM

**Q.** What about the TGI (OVCAR-4 ovarian) of the same compound?
**A.** > 100 µM

**Q.** What about the TGI (NCI-H460 lung) of the same compound?
**A.** > 100 µM

**Q.** What about the TGI (786-0 renal) of the same compound?
**A.** > 100 µM

**Q.** `C#CCN(N=O)C(=O)NCCCC(NC(C)=O)C(=O)NCc1ccccc1` (stereo not given) was tested. Which TGI (COLO 205 colon) did it give?
**A.** > 100 µM

**Q.** And the TGI (NCI-H23 lung)?
**A.** > 100 µM

**Q.** And the TGI (OVCAR-8 ovarian)?
**A.** > 100 µM

**Q.** What about the TGI (HT29 colon) of the same compound?
**A.** > 100 µM

**Q.** What about the TGI (OVCAR-4 ovarian) of the same compound?
**A.** > 100 µM

**Q.** What about the TGI (NCI-H460 lung) of the same compound?
**A.** > 100 µM

**Q.** What about the TGI (786-0 renal) of the same compound?
**A.** > 100 µM

**Q.** How did the TGI (COLO 205 colon) turn out when `C=C1C(=O)OC2C1C(OC(=O)/C(C)=C\C)CC1(CO1)C1C(O)C=C(C)C21O` (stereo not given) was run?
**A.** 2.62 µM

**Q.** And the TGI (HL-60(TB) leukemia)?
**A.** > 100 µM

**Q.** And the TGI (NCI-H23 lung)?
**A.** 27.2 µM

**Q.** And the TGI (OVCAR-8 ovarian)?
**A.** 6.03 µM

**Q.** And the TGI (HT29 colon)?
**A.** 31.4 µM

**Q.** And the TGI (OVCAR-4 ovarian)?
**A.** 20.7 µM

**Q.** And the TGI (NCI-H460 lung)?
**A.** 29.4 µM

**Q.** And the TGI (786-0 renal)?
**A.** 8.5 µM

**Q.** Which TGI (COLO 205 colon) does the source give for `CCOC(=O)C1SC(=Nc2ccc(Cl)cc2C)N=C1C` (stereo not given) here?
**A.** 31 µM

**Q.** What about the TGI (HL-60(TB) leukemia) of the same compound?
**A.** 27.1 µM

**Q.** What about the TGI (NCI-H23 lung) of the same compound?
**A.** 34.8 µM

**Q.** What about the TGI (OVCAR-8 ovarian) of the same compound?
**A.** > 100 µM

**Q.** What about the TGI (HT29 colon) of the same compound?
**A.** 30.3 µM

**Q.** And the TGI (OVCAR-4 ovarian)?
**A.** 56.2 µM

**Q.** What about the TGI (NCI-H460 lung) of the same compound?
**A.** 54.2 µM

**Q.** What about the TGI (786-0 renal) of the same compound?
**A.** 32.6 µM

**Q.** Which results are given for `O=C(NN1C(=O)CSC12CCCC2)C(O)c1ccccc1` (stereo not given)?
**A.** GI50 (COLO 205 colon): > 100 µM; TGI (COLO 205 colon): > 100 µM; GI50 (NCI-H23 lung): > 100 µM; TGI (NCI-H23 lung): > 100 µM; GI50 (OVCAR-8 ovarian): > 100 µM; TGI (OVCAR-8 ovarian): > 100 µM; GI50 (HT29 colon): > 100 µM; TGI (HT29 colon): > 100 µM; GI50 (OVCAR-4 ovarian): > 100 µM; TGI (OVCAR-4 ovarian): > 100 µM; GI50 (NCI-H460 lung): > 100 µM; TGI (NCI-H460 lung): > 100 µM; GI50 (786-0 renal): > 100 µM; TGI (786-0 renal): > 100 µM; GI50 (MCF7 breast): > 100 µM; TGI (MCF7 breast): > 100 µM

**Q.** What does the source list for `CN(C)CCNC(=O)c1cccc2ncc(-c3ccccc3)nc12`?
**A.** TGI (COLO 205 colon): 15.5 µM; TGI (HL-60(TB) leukemia): 42.4 µM; TGI (NCI-H23 lung): 32.2 µM; TGI (OVCAR-8 ovarian): > 93 µM; TGI (HT29 colon): 52.4 µM; TGI (OVCAR-4 ovarian): 26.7 µM; TGI (NCI-H460 lung): 19.6 µM; TGI (786-0 renal): > 100 µM

**Q.** `Cc1cc(C)nc(NS(=O)(=O)c2ccc(NC(=O)c3ccc(Cl)c4c(Nc5ccc(S(=O)(=O)N=C(N)N)cc5)c5ccccc5nc34)cc2)n1` was tested. Which TGI (COLO 205 colon) did it give?
**A.** > 100 µM

**Q.** And the TGI (HL-60(TB) leukemia)?
**A.** 25.1 µM

**Q.** What about the TGI (NCI-H23 lung) of the same compound?
**A.** 17.5 µM

**Q.** What about the TGI (OVCAR-8 ovarian) of the same compound?
**A.** > 100 µM

**Q.** What about the TGI (HT29 colon) of the same compound?
**A.** 30.2 µM

**Q.** What about the TGI (OVCAR-4 ovarian) of the same compound?
**A.** > 100 µM

**Q.** What about the TGI (786-0 renal) of the same compound?
**A.** 96.1 µM

**Q.** What does the source list for `CN(C)CCC1(C2=CCCC2)CC/C(=C\c2ccccc2Cl)C1=O` (stereo not given)?
**A.** TGI (COLO 205 colon): 41 µM; TGI (HL-60(TB) leukemia): 19.6 µM; TGI (NCI-H23 lung): 30 µM; TGI (OVCAR-8 ovarian): 29.3 µM; TGI (HT29 colon): 20.7 µM; TGI (OVCAR-4 ovarian): 25.8 µM; TGI (NCI-H460 lung): 31 µM; TGI (786-0 renal): 25.7 µM

**Q.** What does the source list for `CCC[CH2][Sn]([CH2]CCC)([O]C(=O)c1cc(F)cc(F)c1)[O][Sn]([CH2]CCC)([CH2]CCC)[O]C(=O)c1cc(F)cc(F)c1`?
**A.** GI50 (COLO 205 colon): 1.05 µM; TGI (COLO 205 colon): 2.34 µM; GI50 (HL-60(TB) leukemia): 0.374 µM; TGI (HL-60(TB) leukemia): 2.23 µM; GI50 (NCI-H23 lung): 0.606 µM; TGI (NCI-H23 lung): 1.88 µM; GI50 (OVCAR-8 ovarian): 1.28 µM; TGI (OVCAR-8 ovarian): 2.54 µM; GI50 (HT29 colon): 1.91 µM; TGI (HT29 colon): 4.09 µM; GI50 (OVCAR-4 ovarian): 2.04 µM; TGI (OVCAR-4 ovarian): 3.51 µM; GI50 (NCI-H460 lung): 2.67 µM; TGI (NCI-H460 lung): 6.74 µM; GI50 (786-0 renal): 1.27 µM; TGI (786-0 renal): 2.53 µM
